Results from the supplement of paper PMC4862054.

Experiments:
Assay in all cases: normalised response (% of control), CellTiter-Glo; higher = more viable cells (100 = DMSO, 0 = benzethonium chloride kill control)
Conditions in all cases: incubation time: 72 h
BT-549 = system: BT-549
Outline: (§1)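 Each value is the plate-normalised signal at one concentration of the series. Breast cancer cell lines (20 µl suspension) were incubated 72 h in 384-well plates with compound at 5 concentrations in 10-fold steps over a compound-specific 10,000-fold range. CellTox Green and then CellTiter-Glo were read, and each plate was scaled to 0.1 % DMSO (100) and a positive kill control (0).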

HCC1937 = system: HCC1937
Outline: as §1

CAL-51 = system: CAL-51
Outline: as §1

MFM-223 = system: MFM-223
Outline: as §1

SK-BR-3 = system: SK-BR-3
Outline: as §1

CAL-85-1 = system: CAL-85-1
Outline: as §1

DU-4475 = system: DU-4475
Outline: as §1

MDA-MB-453 = system: MDA-MB-453
Outline: as §1

MDA-MB-231 = system: MDA-MB-231
Outline: as §1

Hs578T = system: Hs578T
Outline: as §1

HCC1599 = system: HCC1599
Outline: as §1

BT-474 = system: BT-474
Outline: as §1

CAL-120 = system: CAL-120
Outline: as §1

HCC1143 = system: HCC1143
Outline: as §1

CAL-148 = system: CAL-148
Outline: as §1

MDA-MB-436 = system: MDA-MB-436
Outline: as §1

MDA-MB-468 = system: MDA-MB-468
Outline: as §1

HDQ-P1 = system: HDQ-P1
Outline: as §1

MCF-10A = system: MCF-10A
Outline: as §1

| Compound | normalised response (BT-549) [%] | normalised response (HCC1937) [%] | normalised response (CAL-51) [%] | normalised response (MFM-223) [%] | normalised response (SK-BR-3) [%] | normalised response (CAL-85-1) [%] | normalised response (DU-4475) [%] | normalised response (MDA-MB-453) [%] | normalised response (MDA-MB-231) [%] | normalised response (Hs578T) [%] | normalised response (HCC1599) [%] | normalised response (BT-474) [%] | normalised response (CAL-120) [%] | normalised response (HCC1143) [%] | normalised response (CAL-148) [%] | normalised response (MDA-MB-436) [%] | normalised response (MDA-MB-468) [%] | normalised response (HDQ-P1) [%] | normalised response (MCF-10A) [%] |
| --- | --- | --- | --- | --- | --- | --- | --- | --- | --- | --- | --- | --- | --- | --- | --- | --- | --- | --- | --- |
| COc1cc(O)c2c(c1)/C=C/C[C@H](O)[C@H](O)C(=O)/C=C\C[C@H](C)OC2=O [(5Z)-7-Oxozeaenol] (1 nM) | 109 | 98.7 | 93.9 | 108 | 105 | 95.2 | 96.6 | 106 | 103 | 99.9 | 91.8 | 97.9 | 99.8 | 106 | 104 | 98 | 98 | 105 | 109 |
| COc1cc2c(NC3CCN(C(C)C)CC3)nc(N3CCC(F)(F)CC3)nc2cc1OCCCN1CCCC1 [UNC0642] (1 nM) | 97.9 | 94.5 | 103 | 91.2 | 93.1 | 93.2 | 97.5 | 105 | 96 | 99.3 | 88.9 | 92.3 | 94.2 | 95 | 87.2 | 89.2 | 95.9 | 92.7 | 102 |
| COc1cc(O)c2c(c1)/C=C/C[C@H](O)[C@H](O)C(=O)/C=C\C[C@H](C)OC2=O [(5Z)-7-Oxozeaenol] (10 nM) | 103 | 106 | 107 | 107 | 107 | 96.4 | 102 | 93 | 109 | 104 | 121 | 106 | 94.9 | 108 | 106 | 99 | 100 | 96.9 | 112 |
| COc1cc(OC2CCN(C)CC2)ccc1Nc1ncc2c(n1)n(C1CCCC1)c(=O)n2C [AZ 3146] (10 nM) | 96.3 | 96.1 | 132 | 102 | 95.4 | 102 | 97 | 97.8 | 104 | 93 | 95.9 | 107 | 103 | 100 | 99.7 | 98.2 | 111 | 95.9 | 95.5 |
| Cc1cc(Nc2cc(CN3CCOCC3)c3nc(C)c(Cc4ccc(Cl)cc4F)n3n2)n[nH]1 [Gandotinib] (1 nM) | 105 | 100 | 93.5 | 99.7 | 110 | 104 | 106 | 103 | 98.1 | 100 | 109 | 108 | 94.4 | 97.8 | 111 | 97.4 | 112 | 97.3 | 107 |
| CCOC(=O)CCNc1cc(N2CCc3ccccc3CC2)nc(-c2ccccn2)n1 [GSK-J4] (10 nM) | 101 | 93.1 | 102 | 99.4 | 97.9 | 93.1 | 99 | 91.9 | 95.1 | 97 | 104 | 97.3 | 102 | 92.6 | 92.8 | 95.8 | 97.8 | 97.4 | 102 |
| NC(=O)c1ccc(I)c([N+](=O)[O-])c1 [Iniparib] (10 nM) | 94.2 | 95.4 | 85.4 | 84.2 | 74.1 | 90.6 | 93.5 | 77.9 | 92.6 | 92.8 | 94.2 | 91.2 | 91.9 | 90 | 83.2 | 87.2 | 90.7 | 89.2 | 81.3 |
| S=P(N1CC1)(N1CC1)N1CC1 [Thio-TEPA] (50 nM) | 100 | 101 | 71.5 | 106 | 91.5 | 98.7 | 103 | 98 | 96.6 | 99.1 | 101 | 97 | 93 | 95.7 | 94.2 | 98.5 | 95.3 | 94.7 | 103 |
| CNC(=O)c1ccc(N2C(=S)N(c3ccc(C#N)c(C(F)(F)F)c3)C(=O)C23CCC3)cc1F [RD162] (1 nM) | 93.8 | 93.8 | 108 | 99.9 | 107 | 96.2 | 102 | 104 | 106 | 102 | 107 | 97 | 98 | 93.7 | 104 | 101 | 106 | 95.9 | 102 |
| Oc1ccc2c(c1)CC[C@H](c1ccccc1)[C@@H]2c1ccc(OCCN2CCCC2)cc1 [Lasofoxifene] (1 nM) | 93.2 | 101 | 106 | 107 | 110 | 96.6 | 105 | 112 | 104 | 103 | 97.3 | 102 | 95.1 | 100 | 112 | 101 | 105 | 96.3 | 104 |
